Some test systems named below: CAKI-1 renal; CCRF-CEM leukemia; HL-60(TB) leukemia; NCI-H23 lung; SF-539 CNS; SNB-19 CNS; SNB-75 CNS; UACC-257 melanoma; OVCAR-5 ovarian; SR leukemia.
Common to all, as to experiment: NCI-60 cell line screen, 48 h

Each structure is given as a SMILES string.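 Briefly, cells in 96-well plates were exposed to five compound concentrations for 48 h, and endpoints were estimated by linear interpolation. GI50: concentration for 50% inhibition of growth. TGI: concentration producing complete growth inhibition.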

From PubChem BioAssay (NCI) come the findings set out here.

As for `O=C(CSCC(=O)N/N=C\c1ccccc1F)N/N=C\c1ccccc1F`, the TGI in the test with CAKI-1 renal, in the test with CCRF-CEM leukemia, in the test on HL-60(TB) leukemia, in the test with NCI-H23 lung, with SF-539 CNS and in the test with SNB-19 CNS was above 100 µM in each case. The TGI in the test with SNB-75 CNS and in the test with UACC-257 melanoma was above 100 µM throughout.
Take `O=C(c1ccccc1O)c1cc(-c2ncc3c(=O)c4ccccc4oc3n2)c(-c2ccccc2O)[nH]c1=O`: the TGI was above 33.3 µM in the test on CAKI-1 renal; 69.3 µM with CCRF-CEM leukemia; 53.2 µM in the test on HL-60(TB) leukemia; 50.1 µM in the test with NCI-H23 lung; 62.8 µM with OVCAR-5 ovarian; 20.4 µM with SF-539 CNS. For the same molecule, the TGI was above 87.5 µM with SNB-19 CNS, above 100 µM in the test with SNB-75 CNS and 47.1 µM in the test with UACC-257 melanoma.
As to `Cc1ccc(C#CS(=O)(=O)C(F)(F)F)cc1`, the TGI in the test with CCRF-CEM leukemia was above 100 µM; in the test on HL-60(TB) leukemia, above 31.6 µM; in the test with NCI-H23 lung, above 100 µM; in the test with OVCAR-5 ovarian it was above 100 µM; with SF-539 CNS it was above 100 µM; in the test on SNB-19 CNS, above 100 µM. The TGI with SNB-75 CNS and with UACC-257 melanoma was above 100 µM in each case.
With `COc1ccc([C@H]2c3cc4c(cc3OC(O)(CO)[C@H]2C(=O)O)OCO4)c(OC)c1` (stereo partly drawn) (tested in a mixture with another compound), the TGI in the test on CCRF-CEM leukemia, with HL-60(TB) leukemia, with NCI-H23 lung, with OVCAR-5 ovarian, in the test on SF-539 CNS and with SNB-19 CNS was above 100 µM each time. For the same molecule, the TGI in the test on SNB-75 CNS, with SR leukemia and in the test on UACC-257 melanoma was above 100 µM in each case.
Take `O=NN1C(c2ccccc2)CCCC1c1ccccc1` (stereo not drawn): the TGI with CAKI-1 renal is above 100 µM; in the test on CCRF-CEM leukemia, above 100 µM; in the test on HL-60(TB) leukemia, above 75.2 µM; with NCI-H23 lung, above 100 µM; in the test on OVCAR-5 ovarian, above 100 µM; in the test on SF-539 CNS, above 100 µM. The figures for the TGI with SNB-19 CNS, in the test with SNB-75 CNS and in the test on UACC-257 melanoma were above 100 µM, above 77.6 µM and above 100 µM, respectively.
With `N#Cc1c(N2CCCC2)nsc1Nc1ccc(F)cc1`, the TGI in the test with CAKI-1 renal, in the test with CCRF-CEM leukemia, in the test with HL-60(TB) leukemia, in the test with NCI-H23 lung, with OVCAR-5 ovarian and in the test on SF-539 CNS was above 100 µM throughout. Moreover, the TGI in the test on SNB-19 CNS, with SR leukemia and in the test on UACC-257 melanoma was above 100 µM throughout.
Turning to `O=C1C=C(O)c2c(O)ccc(O)c2C1=O`, the TGI in the test with CAKI-1 renal, in the test on CCRF-CEM leukemia, in the test on HL-60(TB) leukemia, in the test on NCI-H23 lung, with OVCAR-5 ovarian and with SF-539 CNS was above 100 µM throughout. The TGI with SNB-19 CNS, in the test with SNB-75 CNS and in the test with UACC-257 melanoma was above 100 µM throughout.
Take `O=C(c1ccccc1)c1c(C(F)(F)F)n([O-])c2cc(F)c(F)cc2[n+]1=O`: the TGI in the test with CAKI-1 renal was 1.76 µM; with CCRF-CEM leukemia, above 100 µM; in the test on HL-60(TB) leukemia, 1.55 µM; with NCI-H23 lung it was 0.789 µM; in the test on OVCAR-5 ovarian, 2.98 µM; in the test on SF-539 CNS it was 1.67 µM. Moreover, the TGI with SNB-19 CNS came out at 10.8 µM; with UACC-257 melanoma, 3.76 µM. Besides, in the test on CCRF-CEM leukemia, the GI50 was 8.72 µM.
Turning to `COc1ccc(C2=C(Cl)c3cc(OC)c(OC)cc3C2)cc1OC`, the TGI in the test with CCRF-CEM leukemia, in the test on HL-60(TB) leukemia, in the test with NCI-H23 lung, in the test with SF-539 CNS, in the test on SNB-19 CNS and in the test with SNB-75 CNS was above 100 µM throughout. Besides, the TGI in the test with SR leukemia and in the test on UACC-257 melanoma was above 100 µM throughout.
Consider `COc1cc2[nH]c(=O)c3cc(C)cc4c(Cl)nc(c1OC)c2c43`, for which the TGI in the test on CAKI-1 renal, in the test with CCRF-CEM leukemia, with HL-60(TB) leukemia, in the test on NCI-H23 lung, in the test on OVCAR-5 ovarian and in the test with SF-539 CNS was above 100 µM in each case. For the same molecule, the TGI with SNB-19 CNS is above 100 µM; in the test with SNB-75 CNS it was 85.3 µM; in the test with UACC-257 melanoma it was above 100 µM.
`COc1ccc(CCCN2c3ccccc3Sc3ccccc32)cc1`: the TGI with CAKI-1 renal, in the test with CCRF-CEM leukemia, in the test on HL-60(TB) leukemia, with NCI-H23 lung, with OVCAR-5 ovarian and in the test on SF-539 CNS was above 100 µM throughout. Moreover, the TGI with SNB-19 CNS, in the test with SNB-75 CNS and with UACC-257 melanoma was above 100 µM throughout.
`CCOC(=O)C1=C(c2ccccc2)C12N(Cc1ccccc1)C(=O)C2(c1ccccc1)c1ccccc1` (stereo not drawn): the TGI in the test with CCRF-CEM leukemia, in the test on HL-60(TB) leukemia, with NCI-H23 lung, in the test on OVCAR-5 ovarian, in the test with SF-539 CNS and with SNB-19 CNS was above 100 µM each time. Also, the TGI in the test on SR leukemia and in the test on UACC-257 melanoma was above 100 µM each time.
For the molecule `CC(=O)c1ccc2c3c1O[C@H]1c4[nH]c5ccccc5c4C[C@@]4(O)[C@@H](C2)N(CC2CC2)CC[C@]314`, the TGI in the test with CAKI-1 renal was 37.4 µM; in the test on CCRF-CEM leukemia, 28.2 µM; in the test with HL-60(TB) leukemia, 37 µM; in the test on NCI-H23 lung, 48.1 µM; in the test on OVCAR-5 ovarian, 28.1 µM; in the test with SF-539 CNS, 29.3 µM. The TGI came to 20.8 µM with SNB-19 CNS and 30.7 µM in the test on UACC-257 melanoma.
With `CS(=O)(=O)OCC1CCCCCCCCCCC12SCCCS2` (stereo not drawn), the TGI in the test on CAKI-1 renal, in the test with CCRF-CEM leukemia, in the test with HL-60(TB) leukemia, in the test with NCI-H23 lung, in the test on OVCAR-5 ovarian and in the test with SF-539 CNS was above 100 µM in each case. Also, the TGI with SNB-19 CNS, with SR leukemia and with UACC-257 melanoma was above 100 µM throughout.
With `Cc1ccc2c(=O)cc(Cc3csc4ccccc34)[nH]c2n1`, the TGI with CAKI-1 renal is above 100 µM; in the test on CCRF-CEM leukemia it was above 100 µM; in the test on NCI-H23 lung, 53.4 µM; in the test with OVCAR-5 ovarian, above 100 µM; in the test with SNB-19 CNS, above 100 µM; in the test on SNB-75 CNS, 79.6 µM. This molecule also displayed a TGI in the test with UACC-257 melanoma above 100 µM.
